The results in this text go back to paper PMC4255499 (Frontiers in Physiology, 2014).

The assay addresses T1, α1-microglobulin (A1M) (Homo sapiens, UniProt P02760).
T1 construct: gene AMBP; Recombinant human A1M with an N-terminal His8-tag (tgA1M)
T1 sequence (P02760 20-203): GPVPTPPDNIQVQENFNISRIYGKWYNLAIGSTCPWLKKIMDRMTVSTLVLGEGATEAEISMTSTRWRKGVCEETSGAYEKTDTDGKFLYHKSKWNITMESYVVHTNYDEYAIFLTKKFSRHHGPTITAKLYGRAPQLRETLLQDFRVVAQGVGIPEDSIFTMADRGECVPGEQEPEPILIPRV
Nature of the assay: SPR (tgA1M captured by anti-His antibody, […] binding model); also UV/Vis titration, induced CD, native PAGE shift.

Broadly, the Kd is the free concentration of one partner at which half of the binding sites on the other are occupied at equilibrium, for simple one-to-one binding.

For the compound `C=CC1=C(C)C2=Cc3c(C=C)c(C)c4[n]3[Fe][n]3c(c(C)c(CCC(=O)O)c3=CC3=NC(=C4)C(C)=C3CCC(=O)O)=CC1=N2` [heme], the Kd came out at 7.02 µM.
